Experimental data: US20210255193A1, “LYSINE REACTIVE PROBES AND USES THEREOF” (The Scripps Research Institute, priority 2017, published 2021)
One block for each molecule: values may come before it.

How the values were obtained:
Assay in all cases: competitive isoTOP-ABPP
Type in all cases: binding
DCTN2 Dynactin subunit 2 = molecular target: T1, DCTN2 Dynactin subunit 2 (Homo sapiens, UniProt Q13561); conditions: for isoTOP-ABPP ratio (R) at liganded lysine Q13561_K175: sol, 231
T1 construct: isoTOP-ABPP experiments performed in cell lysates (in vitro); endogenous in cells; host or cells: soluble proteome of human cancer cell lines (MDA-MB-231, Ramos, Jurkat)
T1 sequence (Q13561 whole entry): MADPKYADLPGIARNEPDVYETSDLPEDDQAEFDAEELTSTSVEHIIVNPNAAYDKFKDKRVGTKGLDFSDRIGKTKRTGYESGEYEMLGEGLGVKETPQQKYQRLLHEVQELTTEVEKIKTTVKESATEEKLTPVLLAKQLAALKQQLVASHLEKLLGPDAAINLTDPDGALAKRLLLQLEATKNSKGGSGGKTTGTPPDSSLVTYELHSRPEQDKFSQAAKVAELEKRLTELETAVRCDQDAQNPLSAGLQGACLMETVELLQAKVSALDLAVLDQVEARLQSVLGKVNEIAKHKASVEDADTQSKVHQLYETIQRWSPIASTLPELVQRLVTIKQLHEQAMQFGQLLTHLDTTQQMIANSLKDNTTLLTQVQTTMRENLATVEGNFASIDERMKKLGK
Summary of the method: (§1)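 Readout: isotopic light/heavy MS1 peak-area ratio (R, DMSO heavy over compound light), median across peptides sharing a modified lysine. Lysate received fragment (activated esters 50 μM, guanidinylating agents 100 μM final) or DMSO, then 0.1 mM STP-alkyne probe for 1 h at ambient temperature.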

[1] = molecular target: T2, ERAP1 Endoplasmic reticulum aminopeptidase 1 (Homo sapiens, UniProt Q9NZ08); conditions: for isoTOP-ABPP ratio (R) at liganded lysine Q9NZ08_K685: sol, 231
T2 construct: endogenous in cells; host or cells: MDA-MB-231 lysate
T2 sequence (Q9NZ08 whole entry): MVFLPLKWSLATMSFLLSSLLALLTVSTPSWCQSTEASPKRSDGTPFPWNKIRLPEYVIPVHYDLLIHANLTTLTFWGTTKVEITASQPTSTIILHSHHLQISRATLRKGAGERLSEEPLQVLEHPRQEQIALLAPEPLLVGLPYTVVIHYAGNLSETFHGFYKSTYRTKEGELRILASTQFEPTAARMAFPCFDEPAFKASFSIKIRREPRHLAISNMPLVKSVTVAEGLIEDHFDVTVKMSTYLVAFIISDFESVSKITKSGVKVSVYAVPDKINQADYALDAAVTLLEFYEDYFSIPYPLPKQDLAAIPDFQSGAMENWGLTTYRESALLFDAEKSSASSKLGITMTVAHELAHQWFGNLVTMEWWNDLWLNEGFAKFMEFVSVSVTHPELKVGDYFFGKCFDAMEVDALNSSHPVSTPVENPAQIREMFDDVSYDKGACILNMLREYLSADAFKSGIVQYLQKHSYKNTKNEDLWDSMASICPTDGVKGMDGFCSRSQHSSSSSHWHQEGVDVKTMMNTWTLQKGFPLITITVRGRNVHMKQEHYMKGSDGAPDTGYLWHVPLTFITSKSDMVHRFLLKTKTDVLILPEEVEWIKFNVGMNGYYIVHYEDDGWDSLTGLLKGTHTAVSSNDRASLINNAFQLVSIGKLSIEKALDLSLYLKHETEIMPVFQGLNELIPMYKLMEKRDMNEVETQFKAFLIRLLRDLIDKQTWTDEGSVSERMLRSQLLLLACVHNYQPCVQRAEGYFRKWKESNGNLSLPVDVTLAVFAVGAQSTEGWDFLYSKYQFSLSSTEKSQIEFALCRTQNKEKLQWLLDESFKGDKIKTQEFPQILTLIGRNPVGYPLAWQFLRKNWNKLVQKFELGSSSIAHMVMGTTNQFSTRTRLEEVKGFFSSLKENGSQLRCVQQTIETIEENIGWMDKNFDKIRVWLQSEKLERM
Summary of the method: as §1

[2] = molecular target: T3, GLUD1 Glutamate dehydrogenase 1, mitochondrial (Homo sapiens, UniProt P00367); conditions: for isoTOP-ABPP ratio (R) at liganded lysine P00367_K480: sol, 231
T3 construct: isoTOP-ABPP experiments performed in cell lysates (in vitro); endogenous in cells; host or cells: MDA-MB-231 soluble lysate
T3 sequence (P00367 54-558): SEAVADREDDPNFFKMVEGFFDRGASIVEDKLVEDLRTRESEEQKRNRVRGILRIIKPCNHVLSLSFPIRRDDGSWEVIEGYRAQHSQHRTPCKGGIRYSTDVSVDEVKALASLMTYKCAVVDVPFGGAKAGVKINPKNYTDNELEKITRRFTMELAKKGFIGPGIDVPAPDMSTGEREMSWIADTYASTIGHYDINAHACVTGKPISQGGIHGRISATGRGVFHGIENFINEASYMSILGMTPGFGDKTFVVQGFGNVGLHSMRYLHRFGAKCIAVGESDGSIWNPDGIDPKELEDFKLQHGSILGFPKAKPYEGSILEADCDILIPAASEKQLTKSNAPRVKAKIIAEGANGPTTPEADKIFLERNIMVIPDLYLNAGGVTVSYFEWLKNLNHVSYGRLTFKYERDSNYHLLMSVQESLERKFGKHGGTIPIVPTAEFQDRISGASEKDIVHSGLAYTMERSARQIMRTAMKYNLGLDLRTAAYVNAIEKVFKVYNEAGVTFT
Summary of the method: as §1

[3] = molecular target: T4, KIAA1967 DBIRD complex subunit KIAA1967 (Homo sapiens, UniProt Q8N163); conditions: for isoTOP-ABPP reactivity ratio at lysine Q8N163_K97 / isoTOP-ABPP reactivity ratio at lysine Q8N163_K112 / R value (DMSO/fragment) for probe 1 labeling / isoTOP-ABPP ratio (R) at liganded lysine Q8N163_K97 / isoTOP-ABPP ratio (R) at liganded lysine Q8N163_K112: 50 uM, in vitro; for isoTOP-ABPP reactivity ratio at lysine Q8N163_K97 / isoTOP-ABPP reactivity ratio at lysine Q8N163_K112 / R value (DMSO/fragment) for probe 1 labeling: 231 sol; for isoTOP-ABPP ratio (R) at liganded lysine Q8N163_K97 / isoTOP-ABPP ratio (R) at liganded lysine Q8N163_K112: sol, 231
T4 construct: isoTOP-ABPP experiments performed in cell lysates (in vitro); endogenous in cells; host or cells: soluble proteome of human cancer cell lines (MDA-MB-231; Ramos and Jurkat also prepared)
T4 sequence (Q8N163 whole entry, the tested form may be a part, one chain of several): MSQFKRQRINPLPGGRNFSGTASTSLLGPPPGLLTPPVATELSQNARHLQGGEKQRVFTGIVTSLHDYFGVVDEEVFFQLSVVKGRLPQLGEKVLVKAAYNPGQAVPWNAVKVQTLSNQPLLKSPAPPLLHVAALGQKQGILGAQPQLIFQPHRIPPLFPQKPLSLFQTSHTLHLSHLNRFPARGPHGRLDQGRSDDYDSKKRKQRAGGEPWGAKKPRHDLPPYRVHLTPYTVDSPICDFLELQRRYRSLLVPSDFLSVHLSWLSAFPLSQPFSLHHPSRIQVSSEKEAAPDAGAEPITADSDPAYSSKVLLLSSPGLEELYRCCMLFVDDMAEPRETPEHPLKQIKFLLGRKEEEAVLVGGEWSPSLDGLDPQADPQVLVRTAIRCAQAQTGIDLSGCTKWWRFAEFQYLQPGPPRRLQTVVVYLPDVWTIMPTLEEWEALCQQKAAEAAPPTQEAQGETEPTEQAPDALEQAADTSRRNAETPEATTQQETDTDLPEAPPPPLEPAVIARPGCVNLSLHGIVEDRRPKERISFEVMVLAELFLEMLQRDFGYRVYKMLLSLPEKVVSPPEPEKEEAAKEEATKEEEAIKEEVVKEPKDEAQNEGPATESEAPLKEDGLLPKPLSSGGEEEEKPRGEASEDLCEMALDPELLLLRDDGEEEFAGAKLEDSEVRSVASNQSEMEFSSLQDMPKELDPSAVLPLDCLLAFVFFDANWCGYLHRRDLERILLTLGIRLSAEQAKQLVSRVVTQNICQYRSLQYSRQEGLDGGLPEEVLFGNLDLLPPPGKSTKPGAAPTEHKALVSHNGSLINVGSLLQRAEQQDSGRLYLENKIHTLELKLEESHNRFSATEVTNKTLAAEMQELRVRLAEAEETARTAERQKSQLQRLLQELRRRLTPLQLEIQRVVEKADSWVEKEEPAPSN
Summary of the method: as §1

[4] = molecular target: T5, MRPS24 28S ribosomal protein S24, mitochondrial (Homo sapiens, UniProt Q96EL2); conditions: for isoTOP-ABPP ratio (R) at liganded lysine Q96EL2_K94: sol, 231
T5 construct: isoTOP-ABPP experiments performed in cell lysates (in vitro); endogenous in cells; host or cells: soluble proteome of human cancer cell lines (MDA-MB-231; Ramos and Jurkat also prepared)
Summary of the method: as §1

[5] = molecular target: T6, NAA25 N-alpha-acetyltransferase 25, NatB auxiliary subunit (Homo sapiens, UniProt Q14CX7); conditions: for isoTOP-ABPP ratio (R) at liganded lysine Q14CX7_K575: sol, 231
T6 construct: isoTOP-ABPP experiments performed in cell lysates (in vitro); endogenous in cells; host or cells: soluble proteome of human cancer cell lines (MDA-MB-231; Ramos and Jurkat also prepared)
T6 sequence (Q14CX7 whole entry): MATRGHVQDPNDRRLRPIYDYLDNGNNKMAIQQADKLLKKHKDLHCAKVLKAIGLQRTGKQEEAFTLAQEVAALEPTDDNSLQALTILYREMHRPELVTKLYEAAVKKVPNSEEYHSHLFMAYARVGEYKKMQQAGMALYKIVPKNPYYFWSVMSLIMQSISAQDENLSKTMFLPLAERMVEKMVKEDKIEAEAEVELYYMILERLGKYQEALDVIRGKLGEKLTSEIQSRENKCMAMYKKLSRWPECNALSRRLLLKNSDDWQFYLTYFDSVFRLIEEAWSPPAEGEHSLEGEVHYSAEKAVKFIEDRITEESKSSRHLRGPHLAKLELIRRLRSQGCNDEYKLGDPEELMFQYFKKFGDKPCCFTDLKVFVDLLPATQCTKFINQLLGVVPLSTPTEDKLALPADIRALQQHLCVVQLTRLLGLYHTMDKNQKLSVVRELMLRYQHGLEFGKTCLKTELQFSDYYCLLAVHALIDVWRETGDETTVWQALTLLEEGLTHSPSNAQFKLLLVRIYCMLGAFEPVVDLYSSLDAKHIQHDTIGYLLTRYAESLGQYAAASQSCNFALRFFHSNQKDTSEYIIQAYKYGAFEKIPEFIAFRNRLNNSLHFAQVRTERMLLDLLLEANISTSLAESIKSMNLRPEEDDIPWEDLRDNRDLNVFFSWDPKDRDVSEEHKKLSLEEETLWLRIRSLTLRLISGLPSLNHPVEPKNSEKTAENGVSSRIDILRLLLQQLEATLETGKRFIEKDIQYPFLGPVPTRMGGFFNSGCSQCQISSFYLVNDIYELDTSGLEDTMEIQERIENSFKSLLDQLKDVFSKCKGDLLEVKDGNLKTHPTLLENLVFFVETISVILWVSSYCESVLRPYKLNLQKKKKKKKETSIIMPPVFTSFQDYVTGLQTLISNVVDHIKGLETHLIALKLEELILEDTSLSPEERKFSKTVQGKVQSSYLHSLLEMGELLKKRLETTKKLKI
Summary of the method: as §1

[6] = molecular target: T7, TRMT10C Mitochondrial ribonuclease P protein 1 (Homo sapiens, UniProt Q7L0Y3); conditions: for isoTOP-ABPP ratio (R) at liganded lysine Q7L0Y3_K325: sol, 231
T7 construct: isoTOP-ABPP experiments performed in cell lysates (in vitro); endogenous in cells; host or cells: soluble proteome of human cancer cell lines (MDA-MB-231; Ramos and Jurkat also prepared)
T7 sequence (Q7L0Y3 40-403): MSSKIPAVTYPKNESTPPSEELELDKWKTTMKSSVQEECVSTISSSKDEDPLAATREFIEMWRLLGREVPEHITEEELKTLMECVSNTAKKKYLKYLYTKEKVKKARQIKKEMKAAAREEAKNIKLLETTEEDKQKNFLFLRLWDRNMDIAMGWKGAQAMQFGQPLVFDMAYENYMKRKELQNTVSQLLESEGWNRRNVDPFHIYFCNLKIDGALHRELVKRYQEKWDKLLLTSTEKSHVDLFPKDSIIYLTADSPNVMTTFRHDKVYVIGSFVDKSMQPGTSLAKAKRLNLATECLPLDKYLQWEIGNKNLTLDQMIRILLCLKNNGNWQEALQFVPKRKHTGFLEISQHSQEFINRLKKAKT
Summary of the method: as §1

isoTOP-ABPP reactivity ratio at lysine Q13561_K175 (DCTN2 Dynactin subunit 2; 50 uM, 231 sol, in vitro): 1.1 | isoTOP-ABPP reactivity ratio at lysine Q9NZ08_K685 ([1]; 50 uM, 231 sol, in vitro): 1.9 | isoTOP-ABPP reactivity ratio at lysine P00367_K480 ([2]; 50 uM, 231 sol, in vitro): 1.2 | isoTOP-ABPP reactivity ratio at lysine Q8N163_K97 [3]: 0.7 | isoTOP-ABPP reactivity ratio at lysine Q8N163_K112 [3]: 1.1 | isoTOP-ABPP reactivity ratio at lysine Q96EL2_K94 ([4]; 50 uM, 231 sol, in vitro): 1.3 | isoTOP-ABPP reactivity ratio at lysine Q14CX7_K575 ([5]; 50 uM, 231 sol, in vitro): 0.9 | isoTOP-ABPP reactivity ratio at lysine Q7L0Y3_K325 ([6]; 50 uM, 231 sol, in vitro): 1.1
Compound: O=C(Oc1c(F)c(F)c(F)c(F)c1F)c1ccc2ccccc2n1 [fragment 25, Pentafluorophenyl quinoline-2-carboxylate]

R value (DMSO/fragment) for probe 1 labeling (DCTN2 Dynactin subunit 2; Q13561_K175, 50 uM, 231 sol, in vitro): 1.0 | R value (DMSO/fragment) for probe 1 labeling ([1]; Q9NZ08_K685, 50 uM, 231 sol, in vitro): 1.5 | R value (DMSO/fragment) for probe 1 labeling ([2]; P00367_K480, 50 uM, 231 sol, in vitro): 1.4 | R value (DMSO/fragment) for probe 1 labeling ([3]; Q8N163_K97): 0.9 | R value (DMSO/fragment) for probe 1 labeling ([3]; Q8N163_K112): 1.0 | R value (DMSO/fragment) for probe 1 labeling ([4]; Q96EL2_K94, 50 uM, 231 sol, in vitro): 0.9 | R value (DMSO/fragment) for probe 1 labeling ([5]; Q14CX7_K575, 50 uM, 231 sol, in vitro): 1.1 | R value (DMSO/fragment) for probe 1 labeling ([6]; Q7L0Y3_K325, 50 uM, 231 sol, in vitro): 1.1
Compound: O=C(Oc1c(F)c(F)c(F)c(F)c1F)C(c1ccccc1)c1ccccc1 [fragment 20, Pentafluorophenyl 2,2-diphenylacetate]

Compound: O=C(Oc1ccc([N+](=O)[O-])cc1[N+](=O)[O-])c1cc(C(F)(F)F)cc(C(F)(F)F)c1 [fragment 31, 2,4-Dinitrophenyl 3,5-bis(trifluoromethyl)benzoate]
isoTOP-ABPP reactivity ratio at lysine Q13561_K175 (DCTN2 Dynactin subunit 2; 50 uM, 231 sol, in vitro): 1.0 | isoTOP-ABPP reactivity ratio at lysine Q9NZ08_K685 ([1]; 50 uM, 231 sol, in vitro): 1.6 | isoTOP-ABPP reactivity ratio at lysine P00367_K480 ([2]; 50 uM, 231 sol, in vitro): 1.3 | isoTOP-ABPP reactivity ratio at lysine Q8N163_K97 [3]: 0.9 | isoTOP-ABPP reactivity ratio at lysine Q8N163_K112 [3]: 1.0 | isoTOP-ABPP reactivity ratio at lysine Q96EL2_K94 ([4]; 50 uM, 231 sol, in vitro): 1.6 | isoTOP-ABPP reactivity ratio at lysine Q14CX7_K575 ([5]; 50 uM, 231 sol, in vitro): 1.2 | isoTOP-ABPP reactivity ratio at lysine Q7L0Y3_K325 ([6]; 50 uM, 231 sol, in vitro): 1.1

Compound: N#Cc1ccc(C(=O)Oc2ccc([N+](=O)[O-])cc2[N+](=O)[O-])cc1 [fragment 44, 2,4-Dinitrophenyl 4-cyanobenzoate]
isoTOP-ABPP ratio, lysine Q13561_K175 (DCTN2 Dynactin subunit 2; 50 uM_231_sol_in vitro): 0.8 | isoTOP-ABPP ratio, lysine Q9NZ08_K685 ([1]; 50 uM_231_sol_in vitro): 1.6 | isoTOP-ABPP ratio, lysine P00367_K480 ([2]; 50 uM_231_sol_in vitro, possible other lysine P00367_K477): 1.2 | isoTOP-ABPP ratio, lysine Q8N163_K97 ([3]; 50 uM_231_sol_in vitro): 0.8 | isoTOP-ABPP ratio, lysine Q8N163_K112 ([3]; 50 uM_231_sol_in vitro): 1.0 | isoTOP-ABPP ratio, lysine Q96EL2_K94 ([4]; 50 uM_231_sol_in vitro): 1.1 | isoTOP-ABPP ratio, lysine Q14CX7_K575 ([5]; 50 uM_231_sol_in vitro): 0.8 | isoTOP-ABPP ratio, lysine Q7L0Y3_K325 ([6]; 50 uM_231_sol_in vitro): 1.3

Compound: O=C(Oc1ccc([N+](=O)[O-])cc1[N+](=O)[O-])c1ccc(Oc2ccccc2)cc1 [fragment 39, 2,4-Dinitrophenyl 4-phenoxybenzoate]
isoTOP-ABPP ratio (R) at liganded lysine Q13561_K175 (DCTN2 Dynactin subunit 2; 50 uM, in vitro): 0.8 | isoTOP-ABPP ratio (R) at liganded lysine Q9NZ08_K685 ([1]; 50 uM, in vitro): 1.0 | isoTOP-ABPP ratio (R) at liganded lysine P00367_K480 ([2]; 50 uM, in vitro): 1.0 | isoTOP-ABPP ratio (R) at liganded lysine Q8N163_K97 [3]: 0.9 | isoTOP-ABPP ratio (R) at liganded lysine Q8N163_K112 [3]: 1.1 | isoTOP-ABPP ratio (R) at liganded lysine Q96EL2_K94 ([4]; 50 uM, in vitro): 1.2 | isoTOP-ABPP ratio (R) at liganded lysine Q14CX7_K575 ([5]; 50 uM, in vitro): 1.0 | isoTOP-ABPP ratio (R) at liganded lysine Q7L0Y3_K325 ([6]; 50 uM, in vitro): 0.9

Compound: O=C(Oc1ccc([N+](=O)[O-])cc1[N+](=O)[O-])c1ccc(-c2ccccc2)cc1 [fragment 37, 2,4-Dinitrophenyl [1,1′-biphenyl]-4-carboxylate]
isoTOP-ABPP ratio (R) at liganded lysine Q13561_K175 (DCTN2 Dynactin subunit 2; 50 uM, in vitro): 0.9 | isoTOP-ABPP ratio (R) at liganded lysine Q9NZ08_K685 ([1]; 50 uM, in vitro): 1.0 | isoTOP-ABPP ratio (R) at liganded lysine P00367_K480 ([2]; 50 uM, in vitro): 1.1 | isoTOP-ABPP ratio (R) at liganded lysine Q8N163_K97 [3]: 1.0 | isoTOP-ABPP ratio (R) at liganded lysine Q8N163_K112 [3]: 1.1 | isoTOP-ABPP ratio (R) at liganded lysine Q96EL2_K94 ([4]; 50 uM, in vitro): 0.9 | isoTOP-ABPP ratio (R) at liganded lysine Q14CX7_K575 ([5]; 50 uM, in vitro): 0.9 | isoTOP-ABPP ratio (R) at liganded lysine Q7L0Y3_K325 ([6]; 50 uM, in vitro): 1.0

Compound: COc1cc(CCC(=O)Oc2ccc([N+](=O)[O-])cc2[N+](=O)[O-])cc(OC)c1OC [fragment 33, 2,4-Dinitrophenyl 3-(3,4,5-trimethoxyphenyl)propanoate]
isoTOP-ABPP reactivity ratio at lysine Q13561_K175 (DCTN2 Dynactin subunit 2; 50 uM, 231 sol, in vitro): 1.6 | isoTOP-ABPP reactivity ratio at lysine Q9NZ08_K685 ([1]; 50 uM, 231 sol, in vitro): 1.0 | isoTOP-ABPP reactivity ratio at lysine P00367_K480 ([2]; 50 uM, 231 sol, in vitro): 6.2 | isoTOP-ABPP reactivity ratio at lysine Q8N163_K97 [3]: 0.7 | isoTOP-ABPP reactivity ratio at lysine Q8N163_K112 [3]: 0.9 | isoTOP-ABPP reactivity ratio at lysine Q96EL2_K94 ([4]; 50 uM, 231 sol, in vitro): 1.4 | isoTOP-ABPP reactivity ratio at lysine Q14CX7_K575 ([5]; 50 uM, 231 sol, in vitro): 1.1 | isoTOP-ABPP reactivity ratio at lysine Q7L0Y3_K325 ([6]; 50 uM, 231 sol, in vitro): 0.9
